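Briefly, cells in 96-well plates were exposed to five compound concentrations for 48 h, and endpoints were estimated by linear interpolation. GI50 = concentration required for 50% inhibition of growth.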 Active and inactive are the calls of the source. No stated cut-off is given here; in the data, active = GI50 up to about 1.1 µM and inactive = higher.
Experiments:
Test in all cases: DTP human tumour cell line panel, 48 h
A498 = tested on: A498
NCI-H23 = tested on: NCI-H23
Hs-578T = tested on: Hs-578T
NCI-H522 = tested on: NCI-H522
Malme-3M = tested on: Malme-3M
RPMI-8226 = tested on: RPMI-8226
SN12C = tested on: SN12C
NCI-H226 = tested on: NCI-H226
CAKI-1 = tested on: CAKI-1
SF-539 = tested on: SF-539
IGROV-1 = tested on: IGROV-1
MDA-MB-231 = tested on: MDA-MB-231
UACC-62 = tested on: UACC-62
RXF 393 = tested on: RXF 393
HT-29 = tested on: HT-29
786-0 = tested on: 786-0
EKVX = tested on: EKVX
SK-MEL-28 = tested on: SK-MEL-28
NCI-H460 = tested on: NCI-H460

Measured: GI50

CC(C)(C)OC(=O)NCC(c1c[nH]c2ccccc12)c1c[nH]c2ccccc12
inactive: A498 > 100 µM | NCI-H23 18.4 µM | Hs-578T 24.1 µM | NCI-H522 18.2 µM | Malme-3M 17.7 µM | RPMI-8226 6.62 µM | SN12C 16.7 µM | NCI-H226 21 µM | CAKI-1 14.5 µM | SF-539 17.7 µM | IGROV-1 12.3 µM | MDA-MB-231 16 µM | UACC-62 > 100 µM | RXF 393 4.56 µM | HT-29 15.1 µM | 786-0 16.1 µM | EKVX 12.7 µM | SK-MEL-28 18.1 µM | NCI-H460 14.9 µM

O=c1[nH]c2ccc(C(F)(F)F)cc2nc1-c1ccccc1
inactive: A498 > 100 µM | NCI-H23 > 100 µM | Hs-578T 59.6 µM | NCI-H522 > 100 µM | Malme-3M > 100 µM | RPMI-8226 > 100 µM | SN12C > 100 µM | CAKI-1 > 100 µM | SF-539 > 100 µM | IGROV-1 > 100 µM | MDA-MB-231 > 100 µM | UACC-62 > 100 µM | RXF 393 > 100 µM | HT-29 > 100 µM | 786-0 > 100 µM | EKVX > 100 µM | SK-MEL-28 > 100 µM | NCI-H460 > 100 µM

COC(=O)c1c(O)c(C#N)c2[nH]c3ccccc3n2c1=O
inactive: A498 > 100 µM | NCI-H23 > 100 µM | Hs-578T > 100 µM | NCI-H522 > 100 µM | Malme-3M > 100 µM | RPMI-8226 > 100 µM | SN12C > 100 µM | NCI-H226 > 100 µM | CAKI-1 > 100 µM | SF-539 > 100 µM | IGROV-1 > 100 µM | MDA-MB-231 > 100 µM | UACC-62 > 100 µM | RXF 393 > 100 µM | HT-29 > 100 µM | 786-0 > 100 µM | EKVX > 100 µM | NCI-H460 > 100 µM

N=C(N)C1CN(CCCCCCCCCCN2CC(C(=N)N)C(O)=NC2=O)C(=O)N=C1O (stereo not drawn)
inactive: A498 > 10 µM | NCI-H23 > 10 µM | Hs-578T > 10 µM | NCI-H522 > 10 µM | Malme-3M > 10 µM | RPMI-8226 > 10 µM | SN12C > 10 µM | NCI-H226 > 10 µM | CAKI-1 > 10 µM | SF-539 > 10 µM | IGROV-1 > 10 µM | MDA-MB-231 > 10 µM | UACC-62 > 10 µM | RXF 393 > 10 µM | HT-29 > 10 µM | 786-0 > 10 µM | EKVX > 10 µM | NCI-H460 > 10 µM

Cc1ccc(C(CC(=O)C(C)(C)CN2CCCCC2)SCCS(=O)(=O)O)cc1 (stereo not drawn)
inactive: A498 19.7 µM | NCI-H23 27.9 µM | Hs-578T 30.7 µM | NCI-H522 25.8 µM | Malme-3M 26.4 µM | RPMI-8226 22.1 µM | SN12C 25.3 µM | NCI-H226 30.7 µM | CAKI-1 22.3 µM | SF-539 23.2 µM | IGROV-1 33.9 µM | MDA-MB-231 34.7 µM | UACC-62 21.7 µM | RXF 393 11.8 µM | HT-29 24 µM | 786-0 26.2 µM | EKVX 21.9 µM | NCI-H460 42.3 µM

O=C1/C(=C/C=C/c2ccccc2)N=C(c2ccccc2)N1C1Nc2cc3c(cc2S1)NC(N1C(=O)/C(=C/C=C/c2ccccc2)N=C1c1ccccc1)S3 (stereo not drawn)
inactive: A498 15.5 µM | NCI-H23 66.5 µM | Hs-578T 10.5 µM | NCI-H522 10.3 µM | RPMI-8226 13.2 µM | NCI-H226 > 100 µM | CAKI-1 73.6 µM | SF-539 > 100 µM | IGROV-1 48 µM | MDA-MB-231 31.6 µM | RXF 393 33.8 µM | HT-29 23.3 µM | 786-0 45.9 µM | EKVX > 100 µM | SK-MEL-28 38.2 µM | NCI-H460 15.8 µM

COC(=O)[C@@H]1OC(C)(c2ccccc2)O[C@H]1C(=O)OC
inactive: A498 > 100 µM | NCI-H23 > 100 µM | Hs-578T > 100 µM | NCI-H522 > 100 µM | Malme-3M > 100 µM | RPMI-8226 > 100 µM | NCI-H226 > 100 µM | CAKI-1 > 100 µM | SF-539 > 100 µM | IGROV-1 > 100 µM | MDA-MB-231 > 100 µM | UACC-62 > 100 µM | RXF 393 > 100 µM | HT-29 > 100 µM | 786-0 > 100 µM | EKVX > 100 µM | SK-MEL-28 > 100 µM | NCI-H460 > 100 µM

CN1C(=O)C23CCCC2CC1(c1ccccc1)S3 (stereo not drawn)
inactive: A498 > 100 µM | NCI-H23 > 100 µM | Hs-578T 78.9 µM | NCI-H522 91.2 µM | Malme-3M > 100 µM | RPMI-8226 > 100 µM | SN12C > 100 µM | NCI-H226 > 100 µM | CAKI-1 > 100 µM | SF-539 > 100 µM | IGROV-1 > 100 µM | MDA-MB-231 90.4 µM | UACC-62 > 100 µM | RXF 393 > 100 µM | HT-29 > 100 µM | 786-0 > 100 µM | EKVX > 100 µM | SK-MEL-28 > 100 µM

Reference: ChEMBL document CHEMBL1201862, “PubChem BioAssay data set” (2004)
